The text below walks through data of article PMC7660650, “Chemical Starting Matter for HNF4α Ligand Discovery and Chemogenomics” (International Journal of Molecular Sciences, 2020).

Molecules are shown by their SMILES. Several values for one entry are separate records, joined by “and”; a condition that tells them apart may be missing. Equal entries are not always repeated.

The target of this experiment is T1, Gal4-HNF4α (human HNF4α LBD) (Homo sapiens, UniProt P41235).
T1 construct: uniprot entry: P41235-1, residues 142-377; expressed in transfected cells; host or cells: HEK293T
T1 sequence (P41235 142-377): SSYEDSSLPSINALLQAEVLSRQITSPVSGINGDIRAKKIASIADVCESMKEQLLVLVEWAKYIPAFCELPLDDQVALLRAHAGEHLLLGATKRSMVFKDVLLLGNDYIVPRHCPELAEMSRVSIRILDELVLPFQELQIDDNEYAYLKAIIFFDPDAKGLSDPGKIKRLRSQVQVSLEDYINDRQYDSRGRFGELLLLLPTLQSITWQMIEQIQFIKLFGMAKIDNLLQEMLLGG
The experiment can be described thus: Hybrid Gal4-HNF4α reporter gene assay in transiently transfected HEK293T cells. Conditions: Table S1, primary screening, 50 µM. It counts as cell-based.
For `Cc1nc(-c2ccccc2)c(-c2ccccc2)o1` [Prestw-Frag-2695, Cc1nc(c(o1)-c1ccccc1)-c1ccccc1], the “HNF4a-screening_activity_(mean_of_n=2)” value was found to be 1.374.

Regarding `Oc1ccc(-c2ccc(F)cc2F)cc1` [Prestw-Frag-1237, Oc1ccc(cc1)-c1ccc(F)cc1F], the “HNF4a-screening_activity_(mean_of_n=2)” value is listed as 0.9944.

For `OCC1CCCNC1` (stereo not shown) [Prestw-Frag-3728, OCC1CCCNC1], the “HNF4a-screening_activity_(mean_of_n=2)” value amounted to 1.103.

With `O=C1CCCc2[nH]ccc21` [Prestw-Frag-2675, O=C1CCCc2[nH]ccc12], the “HNF4a-screening_activity_(mean_of_n=2)” value was 1.012.

In the case of `Sc1nc2ccccc2[nH]1` [Prestw-Frag-2539, Sc1nc2ccccc2[nH]1], the “HNF4a-screening_activity_(mean_of_n=2)” value is recorded as 1.302.

`Nc1ccccn1` [Prestw-Frag-2443, Nc1ccccn1]: the “HNF4a-screening_activity_(mean_of_n=2)” value was 1.112.

Consider `CC(=O)NCc1cccnc1` [Prestw-Frag-1745, CC(=O)NCc1cccnc1], for which the “HNF4a-screening_activity_(mean_of_n=2)” value was 0.9231 and 1.026.

As for `O=C1CC2(CCCC2)CC(=O)N1` [Prestw-Frag-3680, O=C1CC2(CCCC2)CC(=O)N1], the “HNF4a-screening_activity_(mean_of_n=2)” value was found to be 0.8965.

`CN1CCN(S(=O)(=O)c2ccccc2)CC1` [Prestw-Frag-3012, CN1CCN(CC1)S(=O)(=O)c1ccccc1]: the “HNF4a-screening_activity_(mean_of_n=2)” value was 0.8018.

Turning to `NC1CCC(=O)NC1=O` (stereo not shown) [Prestw-Frag-3716, NC1CCC(=O)NC1=O], the “HNF4a-screening_activity_(mean_of_n=2)” value stood at 1.139.

Take `O=C(O)/C=C/c1cnc[nH]1` [Prestw-Frag-3090, OC(=O)\C=C\c1cnc[nH]1]: the “HNF4a-screening_activity_(mean_of_n=2)” value is recorded as 1.054.

As for `COc1ccc2cc[nH]c2c1` [Prestw-Frag-1372, COc1ccc2cc[nH]c2c1], the “HNF4a-screening_activity_(mean_of_n=2)” value was 1.02.

With `Nc1nc(N)nc(-c2ccccc2)n1` [Prestw-Frag-3190, Nc1nc(N)nc(n1)-c1ccccc1], the “HNF4a-screening_activity_(mean_of_n=2)” value is 0.8184.

As to `Oc1ccc2c(c1)CCC2` [Prestw-Frag-3713, Oc1ccc2CCCc2c1], the “HNF4a-screening_activity_(mean_of_n=2)” value was found to be 1.011.

As to `O=C(O)c1cccnc1Nc1ccccc1` [Prestw-Frag-1191, OC(=O)c1cccnc1Nc1ccccc1], the “HNF4a-screening_activity_(mean_of_n=2)” value was 1.24.

With `COc1ccc(C(C)=O)c(O)c1` [Prestw-Frag-2701, COc1ccc(C(C)=O)c(O)c1], the “HNF4a-screening_activity_(mean_of_n=2)” value is given as 1.01.

As for `COc1ccc2c(c1)CCC(C(=O)O)C2` (stereo not shown) [Prestw-Frag-3739, COc1ccc2CC(CCc2c1)C(O)=O], the “HNF4a-screening_activity_(mean_of_n=2)” value was 0.6963.

With `Fc1cccc(F)c1N1CCNCC1` [Prestw-Frag-1806, Fc1cccc(F)c1N1CCNCC1], the “HNF4a-screening_activity_(mean_of_n=2)” value is 0.9867 and 1.428.

Regarding `CCOc1ccccc1C(=N)N` [Prestw-Frag-3314, CCOc1ccccc1C(N)=N], the “HNF4a-screening_activity_(mean_of_n=2)” value is listed as 1.051.

Consider `CS(=O)(=O)Nc1ccccc1` [Prestw-Frag-2755, CS(=O)(=O)Nc1ccccc1], for which the “HNF4a-screening_activity_(mean_of_n=2)” value worked out at 0.9874.

For `Cn1cc(CC(=O)O)c2ccccc21` [Prestw-Frag-3461, Cn1cc(CC(O)=O)c2ccccc12], the “HNF4a-screening_activity_(mean_of_n=2)” value turned out to be 1.168.

For `COc1ccc(CCN)cc1OC` [Prestw-Frag-3454, COc1ccc(CCN)cc1OC], the “HNF4a-screening_activity_(mean_of_n=2)” value stood at 1.113.

For `Cn1ccc(=O)[nH]1` [Prestw-Frag-3664, Cn1ccc(=O)[nH]1], the “HNF4a-screening_activity_(mean_of_n=2)” value came to 1.182.

As for `OCc1cc2ccccc2[nH]1` [Prestw-Frag-1297, OCc1cc2ccccc2[nH]1], the “HNF4a-screening_activity_(mean_of_n=2)” value came out at 1.241.

On to `O=C(O)c1cccnc1Nc1cccc(Cl)c1` [Prestw-Frag-2807, OC(=O)c1cccnc1Nc1cccc(Cl)c1], for which the “HNF4a-screening_activity_(mean_of_n=2)” value worked out at 1.808.

As to `CC(=O)c1ccc(N2CCNCC2)c(F)c1` [Prestw-Frag-1094, CC(=O)c1ccc(N2CCNCC2)c(F)c1], the “HNF4a-screening_activity_(mean_of_n=2)” value is 1.1 and 1.293.

Take `CCN(CC)C(=O)/C=C/c1ccccc1` [Prestw-Frag-3088, CCN(CC)C(=O)\C=C\c1ccccc1]: the “HNF4a-screening_activity_(mean_of_n=2)” value was determined as 0.9663.

As to `CCNC(=O)c1cccnc1` [Prestw-Frag-2794, CCNC(=O)c1cccnc1], the “HNF4a-screening_activity_(mean_of_n=2)” value was determined as 1.068.

As for `c1ccc2c(c1)CCNCC2` [Prestw-Frag-3750, C1Cc2ccccc2CCN1], the “HNF4a-screening_activity_(mean_of_n=2)” value is 1.099.

Turning to `COCCOC(=O)c1ccc(N)cc1` [Prestw-Frag-2453, COCCOC(=O)c1ccc(N)cc1], the “HNF4a-screening_activity_(mean_of_n=2)” value worked out at 1.565.

In the case of `O=c1[nH]nc(Cc2ccc(Cl)cc2)c2ccccc12` [Prestw-Frag-1559, Clc1ccc(Cc2n[nH]c(=O)c3ccccc23)cc1], the “HNF4a-screening_activity_(mean_of_n=2)” value was 1.206 and 0.9531.

Take `Nc1nc2c(s1)CCCC2` [Prestw-Frag-2972, Nc1nc2CCCCc2s1]: the “HNF4a-screening_activity_(mean_of_n=2)” value stood at 1.123.

In the case of `CC(C)(C)NCC(O)c1ccccc1` (stereo not shown) [Prestw-Frag-1929, CC(C)(C)NCC(O)c1ccccc1], the “HNF4a-screening_activity_(mean_of_n=2)” value was 1.143.

Turning to `O=c1cc(O)c2ccccc2o1` [Prestw-Frag-1131, Oc1cc(=O)oc2ccccc12], the “HNF4a-screening_activity_(mean_of_n=2)” value was found to be 1.185.

For `c1ccc(CC2NCCc3ccccc32)cc1` (stereo not shown) [Prestw-Frag-1444, C(C1NCCc2ccccc12)c1ccccc1], the “HNF4a-screening_activity_(mean_of_n=2)” value turned out to be 1.349.

`Cc1c[nH]nc1C` [Prestw-Frag-1408, Cc1c[nH]nc1C]: the “HNF4a-screening_activity_(mean_of_n=2)” value is on record as 1.108.

In the case of `OCC1CCNCC1` [Prestw-Frag-3727, OCC1CCNCC1], the “HNF4a-screening_activity_(mean_of_n=2)” value worked out at 0.8559.

As for `Fc1ccc(CN2CCNCC2)cc1` [Prestw-Frag-3673, Fc1ccc(CN2CCNCC2)cc1], the “HNF4a-screening_activity_(mean_of_n=2)” value was 1.124.

Turning to `NCCCOc1cccc(CN2CCCCC2)c1` [Prestw-Frag-2808, NCCCOc1cccc(CN2CCCCC2)c1], the “HNF4a-screening_activity_(mean_of_n=2)” value came out at 1.297.

Consider `c1ccc(C(c2ccccc2)n2cncn2)cc1` [Prestw-Frag-2645, c1ncn(n1)C(c1ccccc1)c1ccccc1], for which the “HNF4a-screening_activity_(mean_of_n=2)” value came out at 0.9885.

Regarding `Nc1ccc[nH]c1=O` [Prestw-Frag-1060, Nc1ccc[nH]c1=O], the “HNF4a-screening_activity_(mean_of_n=2)” value was 1.316 and 1.113.

Turning to `Clc1ccc(CNc2ccccn2)cc1` [Prestw-Frag-2356, Clc1ccc(CNc2ccccn2)cc1], the “HNF4a-screening_activity_(mean_of_n=2)” value is on record as 1.16.

Take `O=C(O)C(CO)c1ccccc1` (stereo not shown) [Prestw-Frag-1686, OCC(C(O)=O)c1ccccc1]: the “HNF4a-screening_activity_(mean_of_n=2)” value stood at 1.109.

Turning to `COc1ccc2[nH]cc(CCN)c2c1` [Prestw-Frag-1480, COc1ccc2[nH]cc(CCN)c2c1], the “HNF4a-screening_activity_(mean_of_n=2)” value is 1.025 and 1.119.

Turning to `O=C(O)CC1CCCCC1` [Prestw-Frag-3668, OC(=O)CC1CCCCC1], the “HNF4a-screening_activity_(mean_of_n=2)” value came to 0.9215.

On to `COc1cccc2c1CCCC2=O` [Prestw-Frag-1236, COc1cccc2C(=O)CCCc12], for which the “HNF4a-screening_activity_(mean_of_n=2)” value is on record as 1.287.

Take `O=C(O)c1cccc(-c2ccc(F)cc2F)c1` [Prestw-Frag-1238, OC(=O)c1cccc(c1)-c1ccc(F)cc1F]: the “HNF4a-screening_activity_(mean_of_n=2)” value is reported as 1.01.

In the case of `c1ccc2[nH]c(CN3CCCC3)nc2c1` [Prestw-Frag-1164, C(N1CCCC1)c1nc2ccccc2[nH]1], the “HNF4a-screening_activity_(mean_of_n=2)” value was 0.7439 and 0.7907.

As to `NC(=O)NS(=O)(=O)c1ccccc1` [Prestw-Frag-1006, NC(=O)NS(=O)(=O)c1ccccc1], the “HNF4a-screening_activity_(mean_of_n=2)” value was 1.153 and 1.01.
